The experiment relates to Plasmodium berghei. As to the kind of experiment: Luciferase/luciferin-expressing antifolate-resistant parasites were used to infect a culture of HepG2 cells that were pre-incubated with compounds. Infected hepatocytes emit light due to the luciferase reaction. Assay results are presented as the percent inhibition of light emission compared to control. […]. Particulars: sporozoite; for IC90: read-out: LUCIFERASE INFECTION ASSAY - IC90. Format: functional.

Results on 26 compounds are retold here after ChEMBL document CHEMBL4483862, “Open-source discovery of chemical leads for next-generation chemoprotective antimalarials” (2018).

Molecules are shown by their SMILES.

For orientation: IC50 means the midpoint of a concentration-inhibition curve. Usually IC90 stands for the concentration at which the effect reaches the 90% level.

Consider `CC(=O)Nc1cccc(-c2ccnc3c2CC(C)(C(=O)NCc2cccc(Cl)c2)O3)c1` (configuration not stated), for which the IC90 was > 7.57 µM. In addition, the IC50 (FFLUC_HILL_SLOPE 12.6, FFLUC_R_SQUARED 0.486, HEPG2TOX_HILL_SLOPE 12, HEPG2TOX_R_SQUARED 0.561, PBLUC_HILL_SLOPE 2.25, PBLUC_R_SQUARED 0.29, read-out: LUCIFERASE INFECTION ASSAY - IC50) was found to be 4.2 µM.

`CC(C)(C)c1cc(C(=O)NNC(=S)Nc2ccccc2)n(Cc2ccc(Cl)cc2Cl)n1`: the IC90 was 4.51 µM. Also, the IC50 (FFLUC_HILL_SLOPE 12.6, FFLUC_R_SQUARED 0.389, HEPG2TOX_HILL_SLOPE 2.18, HEPG2TOX_R_SQUARED 0.945, PBLUC_HILL_SLOPE 8.72, PBLUC_R_SQUARED 0.517, read-out: LUCIFERASE INFECTION ASSAY - IC50) is 3.51 µM.

Turning to `COc1cccc(N2C(C)=CC(=C(C#N)c3nc4ccccc4s3)C=C2C)c1`, the IC90 was > 10 µM. Besides, under “FFLUC_HILL_SLOPE 12.5, FFLUC_R_SQUARED 0.607, HEPG2TOX_HILL_SLOPE 3.97, HEPG2TOX_R_SQUARED 0.941, PBLUC_HILL_SLOPE 8.86, PBLUC_R_SQUARED 0.0114, read-out: LUCIFERASE INFECTION ASSAY - IC50”, the IC50 is > 10 µM.

For `CC(C(=O)Nc1ccc(S(=O)(=O)N2CCCC2)cc1)N1CCC(CCc2ccc(O)cc2)CC1` (configuration not stated), the IC90 was > 10 µM. Besides, where the note is “FFLUC_HILL_SLOPE 12.4, FFLUC_R_SQUARED 0.343, PBLUC_HILL_SLOPE 0.669, PBLUC_R_SQUARED 0.407, read-out: LUCIFERASE INFECTION ASSAY - IC50”, the IC50 is > 10 µM.

As to `COc1ccccc1-c1cc2c(Nc3ccc(OC(F)(F)F)cc3)nccc2n1C`, the IC90 is 8.42 µM. The IC50 (FFLUC_HILL_SLOPE 12.5, FFLUC_R_SQUARED 0.343, HEPG2TOX_HILL_SLOPE 2.16, HEPG2TOX_R_SQUARED 0.708, PBLUC_HILL_SLOPE 2.92, PBLUC_R_SQUARED 0.46, read-out: LUCIFERASE INFECTION ASSAY - IC50) turned out to be 3.97 µM.

Take `O=c1c2ccccc2c(=O)c2oc3cc4oc5c(=O)c6ccccc6c(=O)c5[nH]c4cc3[nH]c12`: the IC90 worked out at 4 µM. Besides, under “FFLUC_HILL_SLOPE 12.7, FFLUC_R_SQUARED 0.208, HEPG2TOX_HILL_SLOPE 4.53, HEPG2TOX_R_SQUARED 0.902, PBLUC_HILL_SLOPE 7.46, PBLUC_R_SQUARED 0.34, read-out: LUCIFERASE INFECTION ASSAY - IC50”, the IC50 worked out at 2.98 µM.

For the compound `CC1CC(C)CN(Cc2nc(=O)c3c(-c4ccc(Cl)cc4)csc3[nH]2)C1` (configuration not stated), the IC90 was determined as 6.66 µM. For the same compound, the IC50 (FFLUC_HILL_SLOPE 12.3, FFLUC_R_SQUARED 0.735, PBLUC_HILL_SLOPE 4.47, PBLUC_R_SQUARED 0.339, read-out: LUCIFERASE INFECTION ASSAY - IC50) turned out to be 4.07 µM.

As for `Cc1ccc(C)c(-n2cc(-c3ccc(Cl)cc3)nc2SCC(=O)c2ccc(Cl)c(Cl)c2)c1`, the 90% effect concentration (IC90) was > 10 µM. Moreover, for the setting “FFLUC_HILL_SLOPE 12.4, FFLUC_R_SQUARED 0.889, HEPG2TOX_HILL_SLOPE 8.6, HEPG2TOX_R_SQUARED 0.032, read-out: LUCIFERASE INFECTION ASSAY - IC50”, the IC50 was > 10 µM.

For the compound `Fc1ccc(CNc2ccc3ncc(Br)n3n2)cc1`, the IC90 was > 10.3 µM. The IC50 (FFLUC_HILL_SLOPE 12.6, FFLUC_R_SQUARED 0.212, PBLUC_HILL_SLOPE 1.62, PBLUC_R_SQUARED 0.732, read-out: LUCIFERASE INFECTION ASSAY - IC50) is 5.26 µM.

Consider `CCCn1nc(C(=O)Nc2ccccc2Cc2ccccc2)c2ccccc2c1=O`, for which the IC90 is > 10 µM. For the same compound, where the note is “FFLUC_HILL_SLOPE 12.7, FFLUC_R_SQUARED 0.0456, HEPG2TOX_HILL_SLOPE 0.0305, HEPG2TOX_R_SQUARED 0.0383, read-out: LUCIFERASE INFECTION ASSAY - IC50”, the IC50 was > 10 µM.

Turning to `O=C(c1cc(C(=O)N2CCCC2)c2nc3scc(-c4ccccc4)c3c(=O)n2c1)c1cc(F)ccc1O`, the IC90 is > 10 µM. Moreover, the IC50 (FFLUC_HILL_SLOPE 12.4, FFLUC_R_SQUARED 0.51, HEPG2TOX_HILL_SLOPE 7.25, HEPG2TOX_R_SQUARED 0.253, PBLUC_HILL_SLOPE 65.5, PBLUC_R_SQUARED 0.659, read-out: LUCIFERASE INFECTION ASSAY - IC50) amounted to 9.78 µM.

As for `CCc1cccc(CC)c1N1C(=O)C=CC1=O`, the IC90 stood at 5.85 µM. Moreover, the IC50 (FFLUC_HILL_SLOPE 12.6, FFLUC_R_SQUARED 0.68, HEPG2TOX_HILL_SLOPE 16.7, HEPG2TOX_R_SQUARED 0.936, PBLUC_HILL_SLOPE 11.7, PBLUC_R_SQUARED 0.538, read-out: LUCIFERASE INFECTION ASSAY - IC50) is 4.85 µM.

On to `CCCCNC(=O)c1c(NC(=O)C(CC)c2ccccc2)nc2ccc(C)cn12` (configuration not stated), for which the IC90 is > 8.41 µM. Further, the IC50 (FFLUC_HILL_SLOPE 12.5, FFLUC_R_SQUARED 0.645, PBLUC_HILL_SLOPE 0.242, PBLUC_R_SQUARED 0.0523, read-out: LUCIFERASE INFECTION ASSAY - IC50) is > 8.41 µM.

For `O=C1C(=Nc2ccc(O)cc2)C=C(NS(=O)(=O)c2cccs2)c2ccccc21`, the IC90 amounted to 3.54 µM. For the same compound, the half-maximal inhibitory concentration (IC50) (FFLUC_HILL_SLOPE 12.7, FFLUC_R_SQUARED 0.111, HEPG2TOX_HILL_SLOPE 2.05, HEPG2TOX_R_SQUARED 0.969, PBLUC_HILL_SLOPE 9.12, PBLUC_R_SQUARED 0.459, read-out: LUCIFERASE INFECTION ASSAY - IC50) is 2.78 µM.

`Cc1ccc(-n2c(SCC(=O)N3CCC(C)Sc4ccccc43)nnc2-c2ccccc2)cc1C` (configuration not stated): the IC90 was > 10 µM. The IC50 (FFLUC_HILL_SLOPE 12.3, FFLUC_R_SQUARED 0.54, HEPG2TOX_HILL_SLOPE 7.7, HEPG2TOX_R_SQUARED 0.421, PBLUC_HILL_SLOPE 3.98, PBLUC_R_SQUARED 0.233, read-out: LUCIFERASE INFECTION ASSAY - IC50) came out at 6.2 µM.

In the case of `CSc1sc(C(=O)NC(=O)Nc2cccc(C(F)(F)F)c2)cc1C#N`, the IC90 was > 8.56 µM. Besides, the IC50 (FFLUC_HILL_SLOPE 12.6, FFLUC_R_SQUARED 0.0423, read-out: LUCIFERASE INFECTION ASSAY - IC50) was > 8.56 µM.

As to `Clc1ccc(/N=C/c2c(Sc3ccc(Cl)cc3)nc3sccn23)cc1`, the IC90 was found to be 5.29 µM. In addition, the IC50 (FFLUC_HILL_SLOPE 12.3, FFLUC_R_SQUARED 0.518, HEPG2TOX_HILL_SLOPE 2.77, HEPG2TOX_R_SQUARED 0.964, PBLUC_HILL_SLOPE 5.31, PBLUC_R_SQUARED 0.509, read-out: LUCIFERASE INFECTION ASSAY - IC50) amounted to 3.5 µM.

On to `Cc1c(C(=O)OC(C)C(=O)Nc2ccc(F)cc2Cl)sc2nc3n(c(=O)c12)CCC3` (configuration not stated), for which the IC90 is > 10 µM. Besides, the IC50 (FFLUC_HILL_SLOPE 12.5, FFLUC_R_SQUARED 0.0754, PBLUC_HILL_SLOPE 2.35, PBLUC_R_SQUARED 0.872, read-out: LUCIFERASE INFECTION ASSAY - IC50) stood at 5.4 µM.

With `CC(CCc1ccccc1)NC(=O)Cn1c(=O)c(=O)n(Cc2ccccc2)c2ccc(Cl)cc21` (configuration not stated), the IC90 was > 10 µM. In addition, the IC50 (FFLUC_HILL_SLOPE 12.6, FFLUC_R_SQUARED 0.716, read-out: LUCIFERASE INFECTION ASSAY - IC50) is > 10 µM.

Turning to `OCc1ccc(-c2cnc3ccc(-c4cccc(Cl)c4)nn23)cc1`, the IC90 was found to be 3.31 µM. Also, the IC50 (FFLUC_HILL_SLOPE 12.3, FFLUC_R_SQUARED 0.916, HEPG2TOX_HILL_SLOPE 9.11, HEPG2TOX_R_SQUARED 0.904, PBLUC_HILL_SLOPE 1.55, PBLUC_R_SQUARED 0.705, read-out: LUCIFERASE INFECTION ASSAY - IC50) was found to be 0.798 µM.

For the compound `O=C(NNC(=S)Nc1ccc(Cl)c(Cl)c1)c1cccn1-c1ccc(F)cc1`, the IC90 was 5.78 µM. The IC50 (FFLUC_HILL_SLOPE 12.7, FFLUC_R_SQUARED 0.0579, HEPG2TOX_HILL_SLOPE 1.8, HEPG2TOX_R_SQUARED 0.871, PBLUC_HILL_SLOPE 2.85, PBLUC_R_SQUARED 0.299, read-out: LUCIFERASE INFECTION ASSAY - IC50) is 2.67 µM.

As for `O=C(Nc1nc2ccccn2c1C(=O)NC1CCCCC1)c1ccccc1`, the IC90 came out at 3.28 µM. Besides, where the note is “FFLUC_HILL_SLOPE 12.3, FFLUC_R_SQUARED 0.522, HEPG2TOX_HILL_SLOPE 1.9, HEPG2TOX_R_SQUARED 0.962, PBLUC_HILL_SLOPE 15.5, PBLUC_R_SQUARED 0.368, read-out: LUCIFERASE INFECTION ASSAY - IC50”, the IC50 turned out to be 2.84 µM.

Consider `CCSc1ncc(-c2nnnn2-c2ccccc2)c(-c2ccccc2)n1`, for which the IC90 was > 9.16 µM. Moreover, the IC50 (FFLUC_HILL_SLOPE 12.6, FFLUC_R_SQUARED 0.17, read-out: LUCIFERASE INFECTION ASSAY - IC50) was > 9.16 µM.

For the compound `Cc1ccc(C2(c3ccccc3)NC(=O)N(CC(=O)c3cccs3)C2=O)cc1C` (configuration not stated), the IC90 was 6.65 µM. The IC50 (FFLUC_HILL_SLOPE 12.5, FFLUC_R_SQUARED 0.056, HEPG2TOX_HILL_SLOPE 0.321, HEPG2TOX_R_SQUARED 0.0152, PBLUC_HILL_SLOPE 3.37, 16.8, PBLUC_R_SQUARED 0.316, 0.669, read-out: LUCIFERASE INFECTION ASSAY - IC50) stood at 4.11 µM.

With `N#Cc1c(-c2ccccc2)c(-c2ccccc2)n(C2CCCCC2)c1NC(=O)CCN1C(=O)c2ccccc2C1=O`, the IC90 was > 10 µM. Also, the half-maximal inhibitory concentration (IC50) (FFLUC_HILL_SLOPE 12.4, FFLUC_R_SQUARED 0.654, read-out: LUCIFERASE INFECTION ASSAY - IC50) is > 10 µM.

`Oc1c(C(c2ccc(C(F)(F)F)cc2)N2CCCC2)cc(Cl)c2cccnc12` (configuration not stated): the IC90 worked out at 2.26 µM. Further, the IC50 (FFLUC_HILL_SLOPE 12.3, FFLUC_R_SQUARED 0.824, HEPG2TOX_HILL_SLOPE 1.2, HEPG2TOX_R_SQUARED 0.387, PBLUC_HILL_SLOPE 2.74, PBLUC_R_SQUARED 0.879, read-out: LUCIFERASE INFECTION ASSAY - IC50) turned out to be 1.01 µM.
